For assay [1], the target named is human IRAK4 FL (Full Length), phosphorylated (Homo sapiens (Human), UniProt Q9NWZ3). In words: IRAK4 Enzymatic DELFIA Assay, Protocol A. In kind it is biochemical. The following applies: 600 μM ATP (KM); full-length phosphorylated recombinant human IRAK4. The protocol:
IRAK4 Enzymatic DELFIA Assay, Protocol A.
This is an in vitro assay to measure IRAK4 enzymatic activity utilizing the DELFIA (Dissociation-Enhanced Lanthanide Fluorescent Immunoassay, Perkin-Elmer) platform, with the human IRAK4 FL (Full Length) construct to characterize IRAK4 inhibitor and control compounds at 600 μM ATP (KM). The final amount of enzyme in the assay is 0.1 nM IRAK4 FL, final concentration of substrate is 50 nM, and final concentration of DMSO is 2.5%.
The test compound was solubilized in DMSO to a stock concentration of 30 mM. The dose response plates were prepared with a 4 mM primary compound concentration (40-fold multiple of the final in-assay concentration), and diluted in DMSO in a four-fold series for a total of 11 data points. 1 μL of the compound dilution plate is spotted into ultra-clear polypropylene, 384-well, U-bottom plates (Corning Life Sciences).
To begin the assay, 19 μL of reaction mixture containing 20 mM HEPES pH=7.5, 5 mM MgCl2, 0.0025% Brij-35, 600 μM ATP, 0.21 nM Full-length phosphorylated recombinant human IRAK4 (GenBank ID AF445802) are aliquoted into the polypropylene, 384-well, U-bottom plates containing 1 μL of test compound, mixed briefly and incubated for 20 minutes at room temperature (RT). Then, 20 μL of 20 mM HEPES pH=7.5, 5 mM MgCl2, 0.0025% Brij-35, 600 μM ATP, and 100 nM ERM-biotinylated peptide (AGAGRDKYKTLRQIR) is added to start the reaction. The reaction is incubated for 60 minutes at RT and stopped by the addition of 20 μL 0.3M EDTA.
(§1) 50 μL of the reaction mixture was transferred to a streptavidin-coated detection plate (DELFIA streptavidin coated plates, 384-well, white plates, Perkin-Elmer Life Sciences) and incubated for 30 minutes at RT. The plates were washed 4× with 75 μL per well of PBS containing 0.05% Tween-20. Plates were then incubated with 50 μL per well of antibody cocktail of Anti-pERM antibody at 0.125 μg/mL (Cell Signaling Technology), plus Anti-Rabbit IgG EuN1 at 0.25 μg/ml (Perkin-Elmer Life Sciences) in a solution of 10 mM MOPS pH=7.5, 150 mM NaCl, 0.05% Tween-20, 0.02% NaN3, 1% BSA, 0.1% Gelatin for 45 minutes. The plates were then washed as before. 50 μL per well of DELFIA Enhancement Solution (Perkin-Elmer Life Sciences) was added to the plate and incubated for 15 minutes at RT prior to being read on an Envision Model 2104 multi-label reader using a 340 nm excitation wavelength and a […] emission wavelength for detection.

For assay [2], the target named is inactive, unphosphorylated (0-phos), human IRAK4 FL (Full Length) (Homo sapiens (Human), UniProt Q9NWZ3). In words: IRAK4 Enzymatic DELFIA Assay, Protocol B. Format: biochemical. The note with it: 600 μM ATP (KM), full-length recombinant human IRAK4. The protocol:
IRAK4 Enzymatic DELFIA Assay, Protocol B.
The test compound is solubilized in DMSO to a stock concentration of 30 mM. The dose response plates were prepared with a 4 mM primary compound concentration, serialized in DMSO and spotted (1 μL) into 384-well polypropylene plates as before.
20 uL of 20 mM HEPES pH=7.5, 5 mM MgCl2, 0.0025% Brij-35, 600 μM ATP, and 100 nM ERM-biotinylated peptide (AGAGRDKYKTLRQIR) was added to start the reaction, which was run for 90 minutes at RT and stopped by the addition of 20 μL 0.3M EDTA.
as §1

For orientation: IC50 means the concentration that inhibits the measured activity by half.

Sequence of inactive, unphosphorylated (0-phos), human IRAK4 FL (Full Length) (Q9NWZ3 whole entry): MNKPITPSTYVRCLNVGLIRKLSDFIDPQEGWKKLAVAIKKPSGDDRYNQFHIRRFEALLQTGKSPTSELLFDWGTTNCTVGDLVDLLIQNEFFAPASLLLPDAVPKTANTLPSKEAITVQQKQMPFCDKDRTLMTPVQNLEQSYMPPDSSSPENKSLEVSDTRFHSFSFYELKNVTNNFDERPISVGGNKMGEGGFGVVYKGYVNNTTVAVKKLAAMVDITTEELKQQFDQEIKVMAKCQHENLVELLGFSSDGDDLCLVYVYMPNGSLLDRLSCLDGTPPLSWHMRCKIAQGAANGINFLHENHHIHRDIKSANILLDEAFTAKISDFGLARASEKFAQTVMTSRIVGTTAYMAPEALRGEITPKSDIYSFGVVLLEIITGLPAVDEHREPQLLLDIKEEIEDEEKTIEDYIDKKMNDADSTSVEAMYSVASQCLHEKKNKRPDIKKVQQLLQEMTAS
Sequence of human IRAK4 FL (Full Length), phosphorylated (Q9NWZ3 whole entry): as above

`CC(C)Oc1cc2c(OC[C@@H]3CCC(=O)N3)ncc(-c3cnn(C)c3)c2cc1C(N)=O` [Example 5, 4-(1-methyl-1H-pyrazol-4-yl)-1-{[(2S)-5-oxopyrrolidin-2-yl]methoxy}-7-(propan-2-yloxy)isoquinoline-6-carboxamide]: the 50% inhibitory concentration (IC50) in assay [1] turned out to be 3.7 nM; in assay [2], 1.1 nM.
The corresponding values for `CC(C)Oc1cc2c(OC[C@@H]3NC(=O)[C@H](F)C34CC4)nccc2cc1C(N)=O` [Example 18, 1-(((4R,7R)-7-fluoro-6-oxo-5-azaspiro[2.4]heptan-4-yl)methoxy)-7-isopropoxyisoquinoline-6-carboxamide] are 16000 nM and 870 nM.
The corresponding values for `CC(C)Oc1cc2c(OC[C@@H]3CCC(=O)N3)ncc(-c3nc(CO)c[nH]3)c2cc1C(N)=O` [Example 8, 4-[4-(Hydroxymethyl)-1H-imidazol-2-yl]-1-{[(2S)-5-oxopyrrolidin-2-yl]methoxy}-7-(propan-2-yloxy)isoquinoline-6-carboxamide] are 2100 nM and 190 nM.
As for `Cc1coc(-c2cnc(OC[C@@H]3CCC(=O)N3)c3cc(OC(C)C)c(C(N)=O)cc23)n1` [Example 6, 4-(4-Methyl-1,3-oxazol-2-yl)-1-{[(2S)-5-oxopyrrolidin-2-yl]methoxy}-7-(propan-2-yloxy)isoquinoline-6-carboxamide], the IC50 in assay [1] was determined as 227 nM; in assay [2] it was 3 nM.
For `CC[C@@H]1CC(=O)N[C@@H]1COc1ncc(NS(=O)(=O)c2cn(C)cn2)c2cc(C(N)=O)c(OC(C)C)cc12` [Example 13, 1-{[(2S,3R)-3-Ethyl-5-oxopyrrolidin-2-yl]methoxy}-4-{[(1-methyl-1H-imidazol-4-yl)sulfonyl]amino}-7-(propan-2-yloxy)isoquinoline-6-carboxamide], in that order: greater than 100000 nM and 12000 nM.
For `CC[C@@H]1[C@H](F)C(=O)N[C@@H]1COc1ncc(N)c2cc(C(N)=O)c(OC)cc12` [Example 15, 4-Amino-1-{[(2S,3S,4S)-3-ethyl-4-fluoro-5-oxopyrrolidin-2-yl]methoxy}-7-methoxyisoquinoline-6-carboxamide], in that order: 2.2 nM and 0.5 nM.
As to `CC[C@@H]1[C@H](F)C(=O)N[C@@H]1COc1nccc2nc(C(N)=O)c(OC)cc12` [Example 32, 5-{[(2S,3S,4S)-3-ethyl-4-fluoro-5-oxopyrrolidin-2-yl]methoxy}-3-methoxy-1,6-naphthyridine-2-carboxamide], the IC50 in assay [1] amounted to 27 nM; in assay [2], 4.5 nM.
The corresponding values for `CC[C@@H]1CC(=O)N[C@@H]1COc1ncc(NS(=O)(=O)c2c[nH]cn2)c2cc(C(N)=O)c(OC(C)C)cc12` [Example 12, 1-{[(2S,3R)-3-Ethyl-5-oxopyrrolidin-2-yl]methoxy}-4-[(1H-imidazol-4-ylsulfonyl)amino]-7-(propan-2-yloxy)isoquinoline-6-carboxamide] are greater than 100000 nM and 6500 nM.
The corresponding values for `COc1cc2c(OC[C@@H]3NC(=O)[C@@H](F)C34CC4)nccc2cc1C(N)=O` [Example 22, 1-(((4R,7S)-7-fluoro-6-oxo-5-azaspiro[2.4]heptan-4-yl)methoxy)-7-methoxyisoquinoline-6-carboxamide] are 26000 nM and 1700 nM.
Turning to `COc1cc2c(OC[C@@H]3NC(=O)[C@H](F)C34CC4)nccc2cc1C(N)=O` [Example 23, 1-(((4R,7R)-7-fluoro-6-oxo-5-azaspiro[2.4]heptan-4-yl)methoxy)-7-methoxyisoquinoline-6-carboxamide], the 50% inhibitory concentration (IC50) came out at 1450 nM in assay [1] and 110 nM in assay [2].
For `COc1cc2c(OC[C@@]34C[C@@H]3CC(=O)N4)nccc2cc1C(N)=O` [Example 31, 7-methoxy-1-{[(1R,5R)-3-oxo-2-azabicyclo[3.1.0]hex-1-yl]methoxy}isoquinoline-6-carboxamide], in that order: greater than 100000 nM and 1200 nM.
The corresponding values for `CC[C@@H]1[C@H](F)C(=O)N[C@@H]1COc1cccc2cc(C(N)=O)c(OC)cc12` [Example 27, 5-(((2S,3S,4S)-3-ethyl-4-fluoro-5-oxopyrrolidin-2-yl)methoxy)-3-methoxy-2-naphthamide] are 0.8 nM and 0.1 nM.
`CC[C@@H]1CC(=O)N[C@@H]1COc1ncc(NS(=O)(=O)c2ccccc2)c2cc(C(N)=O)c(OC(C)C)cc12` [Example 10, 1-{[(2S,3R)-3-ethyl-5-oxopyrrolidin-2-yl]methoxy}-4-[(phenylsulfonyl)amino]-7-(propan-2-yloxy)isoquinoline-6-carboxamide]: the figures for the IC50 in assay [1] and in assay [2] were greater than 100000 nM and 5700 nM, respectively.
For `CC[C@@H]1[C@H](F)C(=O)N[C@@H]1COc1cccc2cc(C(N)=O)c(OC)nc12` [Example 1, 8-{[(2S,3S,4S)-3-Ethyl-4-fluoro-5-oxopyrrolidin-2-yl]methoxy}-2-methoxyquinoline-3-carboxamide], in that order: 7.5 nM and 2 nM.
On to `CNC(=O)c1cc2ccnc(OC[C@H]3NC(=O)[C@@H](F)[C@H]3C)c2cc1OC` [Example 33, 1-(((2S,3S,4S)-4-fluoro-3-methyl-5-oxopyrrolidin-2-yl)methoxy)-7-methoxy-N-methylisoquinoline-6-carboxamide], for which the IC50 in assay [2] worked out at 2000 nM.
In the case of `COc1cc2c(OC[C@H]3NC(=O)[C@H](F)C34CC4)nccc2cc1C(N)=O` [Example 21, 1-(((4S,7R)-7-fluoro-6-oxo-5-azaspiro[2.4]heptan-4-yl)methoxy)-7-methoxyisoquinoline-6-carboxamide], the 50% inhibitory concentration (IC50) was 38.5 nM in assay [1] and 21 nM in assay [2].
As for `COc1cc2c(OC[C@H]3NC(=O)[C@@H](F)C34CC4)nccc2cc1C(N)=O` [Example 24, 1-(((4S,7S)-7-fluoro-6-oxo-5-azaspiro[2.4]heptan-4-yl)methoxy)-7-methoxyisoquinoline-6-carboxamide], the IC50 was found to be 5.2 nM in assay [1] and 0.8 nM in assay [2].
For `COc1cc2c(OC[C@]34C[C@H]3CC(=O)N4)nccc2cc1C(N)=O` [Example 30, 7-methoxy-1-{[(1S,5S)-3-oxo-2-azabicyclo[3.1.0]hex-1-yl]methoxy}isoquinoline-6-carboxamide], in that order: 4300 nM and 151 nM.
For `CC[C@@H]1CC(=O)N[C@@H]1COc1cncc2cc(C(N)=O)c(OC)cc12` [Example 25, 4-(((2S,3R)-3-ethyl-5-oxopyrrolidin-2-yl)methoxy)-6-methoxyisoquinoline-7-carboxamide], in that order: 47 nM and 2.7 nM.
For `CC(C)Oc1cc2c(OC[C@H]3NC(=O)[C@@H](F)C34CC4)nccc2cc1C(N)=O` [Example 19, 1-(((4S,7S)-7-fluoro-6-oxo-5-azaspiro[2.4]heptan-4-yl)methoxy)-7-isopropoxyisoquinoline-6-carboxamide], in that order: 5.4 nM and 0.6 nM.
As for `NC(=O)c1cc2ccnc3c2cc1OCCOC[C@H]1C[C@@H](CO3)NC1=O` [Example 28, (3S,6R)-5-oxo-2,3,4,5,6,7,9,10-octahydro-12,14-(ethanediylidene)-3,6-methanopyrido[2,3-l][1,4,11,8]trioxazacyclopentadecine-19-carboxamide], the 50% inhibitory concentration (IC50) in assay [1] was 1900 nM.
